Reference: article PMC10100225, “In Vivo Biocatalytic Cascades Featuring an Artificial‐Enzyme‐Catalysed New‐to‐Nature Reaction” (Angewandte Chemie (International Ed. in English), 2022)

Key:
Type in all cases: cell-based
[1] = molecular target: T1, feruloyl CoA synthase (FCS, Atfcs) (Amycolatopsis thermoflava, UniProt Z9FW54HPU9); test: whole-cell aldehyde formation; details: E. coli RARE cells co-expressing ECH hydratase/aldolase, which completes the conversion to aldehyde; MMV medium, 5 mM, 24 °C
T1 construct: pETDuet-1, co-expressed with enoyl-CoA hydratase/aldolase Atech of the same strain in E. coli K-12 MG1655 (RARE)

[2] = molecular target: T2, 5-Hydroxymethylfurfural (HMF) oxidase (HMFO) (Methylovorus sp. MP688, UniProt E4QP00); test: whole-cell alcohol oxidation; details: O2 as oxidant; E. coli RARE cells, 5 mM, 2 h
T2 construct: gene MPQ_0130; flavoprotein, pBAD vector, expressed in E. coli K-12 MG1655 (RARE); no mutations told
T2 sequence (E4QP00 1-531): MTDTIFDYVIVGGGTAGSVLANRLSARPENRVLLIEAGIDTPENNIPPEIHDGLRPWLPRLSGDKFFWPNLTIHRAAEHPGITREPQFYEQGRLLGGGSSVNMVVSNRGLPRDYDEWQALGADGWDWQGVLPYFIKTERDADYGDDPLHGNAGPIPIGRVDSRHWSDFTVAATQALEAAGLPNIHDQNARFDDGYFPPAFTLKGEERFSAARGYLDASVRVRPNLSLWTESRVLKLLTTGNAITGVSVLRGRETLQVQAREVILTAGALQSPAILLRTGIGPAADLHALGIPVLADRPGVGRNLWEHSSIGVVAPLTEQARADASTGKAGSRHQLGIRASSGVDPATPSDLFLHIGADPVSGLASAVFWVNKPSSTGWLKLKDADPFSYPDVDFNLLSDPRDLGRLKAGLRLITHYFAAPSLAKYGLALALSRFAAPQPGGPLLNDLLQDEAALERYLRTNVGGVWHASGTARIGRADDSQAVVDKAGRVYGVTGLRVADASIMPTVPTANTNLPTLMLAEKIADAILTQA

[3] = molecular target: carboxylic acid reductase (CAR) (Nocardia iowensis, UniProt Q6RKB1); test: whole-cell aldehyde formation; details: E. coli RARE cells co-expressing SFP; MMV medium, 5 mM, 24 °C
Sequence of carboxylic acid reductase (CAR) (Q6RKB1 2-1174): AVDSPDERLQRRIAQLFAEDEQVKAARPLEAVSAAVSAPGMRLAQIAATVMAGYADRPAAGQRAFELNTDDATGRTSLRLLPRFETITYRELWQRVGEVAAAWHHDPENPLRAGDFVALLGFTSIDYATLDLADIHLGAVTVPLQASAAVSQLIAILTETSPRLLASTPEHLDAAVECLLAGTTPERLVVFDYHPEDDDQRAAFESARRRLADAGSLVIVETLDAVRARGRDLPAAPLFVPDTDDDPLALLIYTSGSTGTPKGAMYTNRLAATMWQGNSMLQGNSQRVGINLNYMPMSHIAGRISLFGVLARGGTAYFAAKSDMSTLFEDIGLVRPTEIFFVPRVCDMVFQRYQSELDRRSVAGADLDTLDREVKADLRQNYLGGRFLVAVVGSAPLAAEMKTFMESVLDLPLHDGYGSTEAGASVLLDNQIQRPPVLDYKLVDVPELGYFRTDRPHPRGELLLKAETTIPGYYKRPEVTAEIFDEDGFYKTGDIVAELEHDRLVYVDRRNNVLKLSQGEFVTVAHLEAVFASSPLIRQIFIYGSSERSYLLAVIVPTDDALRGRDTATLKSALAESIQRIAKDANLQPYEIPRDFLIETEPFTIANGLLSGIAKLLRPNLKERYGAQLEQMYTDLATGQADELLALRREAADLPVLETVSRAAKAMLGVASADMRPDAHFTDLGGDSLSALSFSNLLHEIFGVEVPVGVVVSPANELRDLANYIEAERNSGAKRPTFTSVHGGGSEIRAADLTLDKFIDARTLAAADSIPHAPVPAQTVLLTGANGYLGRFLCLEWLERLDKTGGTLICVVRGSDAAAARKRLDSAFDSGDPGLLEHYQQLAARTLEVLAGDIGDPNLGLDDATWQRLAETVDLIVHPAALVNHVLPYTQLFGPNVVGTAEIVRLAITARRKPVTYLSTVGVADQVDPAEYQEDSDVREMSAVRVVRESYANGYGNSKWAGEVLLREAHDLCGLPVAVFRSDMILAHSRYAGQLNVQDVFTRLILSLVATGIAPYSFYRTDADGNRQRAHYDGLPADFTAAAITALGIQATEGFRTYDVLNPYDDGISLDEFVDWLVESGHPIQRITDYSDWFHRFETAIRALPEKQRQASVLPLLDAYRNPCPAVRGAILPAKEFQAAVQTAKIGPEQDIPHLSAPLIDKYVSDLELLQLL

SMILES	whole-cell alcohol oxidation [2]	whole-cell aldehyde formation [3]	other results
O=C(O)/C=C/c1ccc(O)cc1 [compound 5, p-coumaric acid]	–	–	whole-cell aldehyde formation [1]: FCS‐ECH/E. coli RARE, starting from p‐coumaric acid
OCc1ccc(O)cc1 [6 a, p-hydroxybenzyl alcohol]	whole cell HMFO catalysed oxidation of benzyl alcohol and p‐hydroxybenzyl alcohol	–	–
OCc1ccccc1 [6 b, benzyl alcohol]	whole cell HMFO catalysed oxidation of benzyl alcohol and p‐hydroxybenzyl alcohol	–	–
O=C(O)c1ccc(O)cc1 [4 a, p-hydroxybenzoic acid]	–	CAR‐SFP/E. coli RARE, from p‐hydroxybenzoic acid, produced a good yield of p‐hydroxybenzaldehyde	–
O=C(O)c1ccccc1 [4 b, benzoic acid]	–	reduction of benzoic acid to benzaldehyde catalysed by CAR‐SFP/E. coli RARE	–
